The source made the active and inactive calls. No rule for the calls is given here.
System: CCRIS mutagenicity, Ames/micronucleus/aberration tests
Experiment: CCRIS mutagenicity studies
[1] = Test System: AMES SALMONELLA TYPHIMURIUM, Strain/Indicator: TA98, Metabolic Activation: NONE, Method: PREINCUBATION
[2] = Test System: AMES SALMONELLA TYPHIMURIUM, Strain/Indicator: TA100, Metabolic Activation: NONE, Method: PREINCUBATION
[3] = Test System: AMES SALMONELLA TYPHIMURIUM, Strain/Indicator: TA98, Metabolic Activation: HAMSTER, LIVER, S-9, AROCLOR 1254, Method: PREINCUBATION
[4] = Test System: AMES SALMONELLA TYPHIMURIUM, Strain/Indicator: TA98, Metabolic Activation: RAT, LIVER, S-9, AROCLOR 1254, Method: PREINCUBATION
[5] = Test System: AMES SALMONELLA TYPHIMURIUM, Strain/Indicator: TA100, Metabolic Activation: HAMSTER, LIVER, S-9, AROCLOR 1254, Method: PREINCUBATION
[6] = Test System: AMES SALMONELLA TYPHIMURIUM, Strain/Indicator: TA100, Metabolic Activation: RAT, LIVER, S-9, AROCLOR 1254, Method: PREINCUBATION
[7] = Test System: AMES SALMONELLA TYPHIMURIUM, Strain/Indicator: TA1535, Metabolic Activation: HAMSTER, LIVER, S-9, AROCLOR 1254, Method: PREINCUBATION
[8] = Test System: AMES SALMONELLA TYPHIMURIUM, Strain/Indicator: TA1535, Metabolic Activation: NONE, Method: PREINCUBATION
[9] = Test System: AMES SALMONELLA TYPHIMURIUM, Strain/Indicator: TA1535, Metabolic Activation: RAT, LIVER, S-9, AROCLOR 1254, Method: PREINCUBATION
[10] = Test System: AMES SALMONELLA TYPHIMURIUM, Strain/Indicator: TA1537, Metabolic Activation: HAMSTER, LIVER, S-9, AROCLOR 1254, Method: PREINCUBATION
[11] = Test System: AMES SALMONELLA TYPHIMURIUM, Strain/Indicator: TA1537, Metabolic Activation: NONE, Method: PREINCUBATION
[12] = Test System: AMES SALMONELLA TYPHIMURIUM, Strain/Indicator: TA1537, Metabolic Activation: RAT, LIVER, S-9, AROCLOR 1254, Method: PREINCUBATION

| Structure (SMILES) | mutagenic call [1] | mutagenic call [2] | mutagenic call [3] | mutagenic call [4] | mutagenic call [5] | mutagenic call [6] | mutagenic call [7] | mutagenic call [8] | mutagenic call [9] | mutagenic call [10] | mutagenic call [11] | mutagenic call [12] | other results |
| --- | --- | --- | --- | --- | --- | --- | --- | --- | --- | --- | --- | --- | --- |
| CC1=C[C@]2(O[C@@H]3O[C@H](CO)[C@@H](O)[C@H](O)[C@H]3O)C[C@@H](C)C(=O)[C@@H]2[C@](C)(O)C12CC2 | active; positive | active; positive |  |  |  |  |  |  |  |  |  |  | mutagenic call (Test System: AMES SALMONELLA TYPHIMURIUM, Strain/Indicator: TA98, Metabolic Activation: NONE, Method: PREINCUBATION (PH 7.4)): inactive; negative; mutagenic call (Test System: AMES SALMONELLA TYPHIMURIUM, Strain/Indicator: TA98, Metabolic Activation: NONE, Method: PREINCUBATION (PH 8.5)): active; positive; mutagenic call (Test System: AMES SALMONELLA TYPHIMURIUM, Strain/Indicator: TA98, Metabolic Activation: S-9, Method: PREINCUBATION (PH 7.4)): inactive; negative; mutagenic call (Test System: AMES SALMONELLA TYPHIMURIUM, Strain/Indicator: TA100, Metabolic Activation: NONE, Method: PREINCUBATION (PH 7.4)): inactive; negative; mutagenic call (Test System: AMES SALMONELLA TYPHIMURIUM, Strain/Indicator: TA100, Metabolic Activation: NONE, Method: PREINCUBATION (PH 8.5)): active; positive; mutagenic call (Test System: AMES SALMONELLA TYPHIMURIUM, Strain/Indicator: TA100, Metabolic Activation: S-9, Method: PREINCUBATION (PH 7.4)): inactive; negative; mutagenic call (Test System: UDS RAT HEPATOCYTES, Strain/Indicator: THY INCORP, Metabolic Activation: NONE, Method: AUTORADIOGRAPHY): active; positive |
| [N-]=[N+]=N[C@H](c1ccccc1)[C@@H](O)CO |  |  |  |  |  |  |  |  |  |  |  |  | mutagenic call (Test System: AMES SALMONELLA TYPHIMURIUM, Strain/Indicator: TA100, Metabolic Activation: RAT, LIVER, S-9, PCB, Method: PREINCUBATION): active; positive |
| CCOC(=O)NO |  |  |  |  |  |  |  |  |  |  |  |  | mutagenic call (Test System: AMES SALMONELLA TYPHIMURIUM, Strain/Indicator: TA98, Metabolic Activation: RAT, LIVER, S-9, KC500 OR PHENOBARBITAL, Method: LIQUID SUSPENSION): active; positive; mutagenic call (Test System: E. COLI, Strain/Indicator: WP2 UVRA, Metabolic Activation: NONE, Method: FLUCTUATION TEST): active; positive |
| Cc1cccc(OP(=O)(Oc2cccc(C)c2)Oc2cccc(C)c2)c1 | inactive; negative | inactive; negative | inactive; negative | inactive; negative | inactive; negative | inactive; negative | inactive; negative | inactive; negative | inactive; negative | inactive; negative | inactive; negative | inactive; negative |  |
| Clc1ccc(Cl)c(Cl)c1 | inactive; negative | inactive; negative | inactive; negative | inactive; negative | inactive; negative | inactive; negative | inactive; negative | inactive; negative | inactive; negative | inactive; negative | inactive; negative | inactive; negative |  |
| [S]1[S][SbH][S][S][SbH]1 |  |  |  |  |  |  |  |  |  |  |  |  | mutagenic call (Test System: CHINESE HAMSTER OVARY, Strain/Indicator: CHO (HGPRT)/6-THIOGUANINE, Metabolic Activation: NONE): inactive; negative; mutagenic call (Test System: CHINESE HAMSTER OVARY, Strain/Indicator: CHO (HGPRT)/6-THIOGUANINE, Metabolic Activation: RAT, LIVER, S-9, AROCLOR 1254): inactive; negative |
| CCNNCC | inactive; negative | inactive; negative |  |  |  |  |  | inactive; negative |  |  | inactive; negative |  | mutagenic call (Test System: AMES SALMONELLA TYPHIMURIUM, Strain/Indicator: TA98, Metabolic Activation: RAT LIVER S-9, PHENOBARBITAL AND BETA-NAPHTHOFLAVONE, Method: PREINCUBATION): inactive; negative; mutagenic call (Test System: AMES SALMONELLA TYPHIMURIUM, Strain/Indicator: TA100, Metabolic Activation: NONE, Method: PREINCUBATION (11 HR GROWTH PERIOD FOR BACTERIA)): active; positive; mutagenic call (Test System: AMES SALMONELLA TYPHIMURIUM, Strain/Indicator: TA100, Metabolic Activation: RAT LIVER S-9, PHENOBARBITAL AND BETA-NAPHTHOFLAVONE, Method: PREINCUBATION): inactive; negative; mutagenic call (Test System: AMES SALMONELLA TYPHIMURIUM, Strain/Indicator: TA100, Metabolic Activation: RAT, LIVER, S-9, PCB, Method: PREINCUBATION (11 HR GROWTH PERIOD FOR BACTERIA)): inactive; negative; mutagenic call (Test System: AMES SALMONELLA TYPHIMURIUM, Strain/Indicator: TA102, Metabolic Activation: NONE, Method: PREINCUBATION): inactive; negative; mutagenic call (Test System: AMES SALMONELLA TYPHIMURIUM, Strain/Indicator: TA102, Metabolic Activation: NONE, Method: PREINCUBATION (5 OR 7 HR GROWTH PERIOD FOR BACTERIA)): active; positive; mutagenic call (Test System: AMES SALMONELLA TYPHIMURIUM, Strain/Indicator: TA102, Metabolic Activation: NONE, Method: PREINCUBATION (11 HR GROWTH PERIOD FOR BACTERIA)): inactive; negative; mutagenic call (Test System: AMES SALMONELLA TYPHIMURIUM, Strain/Indicator: TA102, Metabolic Activation: RAT LIVER S-9, PHENOBARBITAL AND BETA-NAPHTHOFLAVONE, Method: PREINCUBATION): inactive; negative; mutagenic call (Test System: AMES SALMONELLA TYPHIMURIUM, Strain/Indicator: TA102, Metabolic Activation: RAT, LIVER, S-9, PCB, Method: PREINCUBATION (5 OR 7 HR GROWTH PERIOD FOR BACTERIA)): inactive; negative; mutagenic call (Test System: AMES SALMONELLA TYPHIMURIUM, Strain/Indicator: TA104, Metabolic Activation: NONE, Method: PREINCUBATION): inactive; negative; mutagenic call (Test System: AMES SALMONELLA TYPHIMURIUM, Strain/Indicator: TA104, Metabolic Activation: RAT LIVER S-9, PHENOBARBITAL AND BETA-NAPHTHOFLAVONE, Method: PREINCUBATION): inactive; negative; mutagenic call (Test System: AMES SALMONELLA TYPHIMURIUM, Strain/Indicator: TA1535, Metabolic Activation: RAT LIVER S-9, PHENOBARBITAL AND BETA-NAPHTHOFLAVONE, Method: PREINCUBATION): inactive; negative; mutagenic call (Test System: AMES SALMONELLA TYPHIMURIUM, Strain/Indicator: TA1537, Metabolic Activation: RAT LIVER S-9, PHENOBARBITAL AND BETA-NAPHTHOFLAVONE, Method: PREINCUBATION): inactive; negative; mutagenic call (Test System: E.COLI, Strain/Indicator: WP2UVRA/PKM101, Metabolic Activation: NONE, Method: PREINCUBATION): inactive; negative; mutagenic call (Test System: E.COLI, Strain/Indicator: WP2UVRA/PKM101, Metabolic Activation: RAT LIVER S-9, PHENOBARBITAL AND BETA-NAPHTHOFLAVONE, Method: PREINCUBATION): inactive; negative; mutagenic call (Test System: E.COLI, Strain/Indicator: WP2UVRA, Metabolic Activation: NONE, Method: PREINCUBATION): inactive; negative; mutagenic call (Test System: E.COLI, Strain/Indicator: WP2UVRA, Metabolic Activation: RAT LIVER S-9, PHENOBARBITAL AND BETA-NAPHTHOFLAVONE, Method: PREINCUBATION): inactive; negative |
| Oc1cc2c(cc1O)[C@@H]1c3ccc(O)c(O)c3OC[C@]1(O)C2 | inactive; negative | inactive; negative | inactive; negative | inactive; negative | inactive; negative | inactive; negative | inactive; negative | inactive; negative | inactive; negative | inactive; negative | inactive; negative | inactive; negative |  |

From PubChem BioAssay AID1259407 (Chemical Carcinogenesis Research Information System (CCRIS), 2018)
